Test results reported in patent US5994569A, “Dihomo-seco-cholestanes” (Hoffmann-La Roche Inc., priority 1997, dated 1999).
Where two headings read alike, the source gives them in different places.

Tested on: IL-12 production
Test: In vitro Assay for IL-12 Inhibition (IL-12 production by THP-1 cells or human peripheral whole blood, ELISA)
Format: cell-based
Conditions: read-out: IC50 values for the inhibition of IL-12 production
[1] = THP-1 cells stimulated with SAC and huIFN-γ (1000 U/ml), or alternatively human peripheral whole blood primed with huIFN-γ then SAC, supernatants after 48 hours, IL-12 by ELISA

Row | Compound | IC50 [1] [nM] | IC50 (Homo sapiens, THP-1, 48 h) [nM]
1 | C=C1/C(=C\C=C2/CCC[C@]3(C)[C@@H]([C@H](C)CCCC(C)(C)O)CC[C@@H]23)C[C@@H](O)C[C@@H]1O [Calcitriol, reference compound] |  | 60
2 | C=C1C(=CC=C2CCCC3(C)C2CCC3C(C)CC=CC=CC(C)(C)O)CC(O)CC1O [Example 1, (5Z,7E ,23E,24aE)-(1R,3S)-24a,24b-dihomo-9,10-seco-cholesta-5,7,10(19),23,24a-pentaene-1,3,25-triol] | 10 | 
3 | C=C1/C(=C\C=C2/CCC[C@]3(C)[C@@H]([C@H](C)C/C=C/C=C/C(C)(C)O)CC[C@@H]23)C[C@H](O)C[C@@H]1O [Example 3, (5Z,7E,23E,24aE)-(1S,3S)-24a,24b-Dihomo-9,10-seco-cholesta-5,7,10(19),23,24a-pentaene-1,3,25-triol] | 30 | 
4 | C=C1/C(=C\C=C2/CCC[C@]3(C)[C@@H]([C@H](C)C/C=C/C=C/C(C)(C)O)CCC[C@@H]23)C[C@@H](O)C[C@@H]1O [Example 4, (5Z,7E,23E,24aE)-(1S,3R)-17a,24a,24b-trihomo-9,10-seco-cholesta-5,7,10(19),23,24a-pentaene-1,3,25-triol] | 1 | 
5 | C=C1/C(=C\C=C2/CCC[C@]3(C)C([C@H](C)C/C=C/C=C/C(C)(C)O)=CCC[C@@H]23)C[C@@H](O)C[C@@H]1O [Example 8, (5Z,7E,23E,24aE)-(1S,3R)-17a,24a,24b-Trihomo-9,10-seco-cholesta-5,7,10(19),17,23,24a-hexaene-1,3,25-triol] | 1 | 

More lines, main results first:

Row | IC50 [1] [nM] | Compound | IC50 (Homo sapiens, THP-1, 48 h) [nM]
6 | 10 | C[C@H](CC=CC#CC(C)(C)O)[C@H]1CC[C@H]2/C(=C/C=C3C[C@@H](O)C[C@H](O)C3)CCC[C@]12C [Example 13a, (7E,23E)- and (7E,23Z)-(1R,3R)-24a,24b-dihomo-19-nor-9,10-seco-cholesta-5,7,23-trien-24a-yne-1,3,25-triol] | 
7 | 10 | C[C@H](CC=CC#CC1(O)CCCC1)[C@H]1CC[C@H]2/C(=C/C=C3C[C@@H](O)C[C@H](O)C3)CCC[C@]12C [Example 13c, (7E,23E)- and (7E,23Z)-(1R,3R)-25-(1-hydroxy-cyclopentyl)-24a,24b-dihomo-19-nor-9,10-seco-cholesta-5,7,23-trien-24a-yne-1,3,25-diol] | 
8 | 10 | C[C@H](CC=CC#CC(O)(C(F)(F)F)C(F)(F)F)[C@H]1CC[C@H]2/C(=C/C=C3C[C@@H](O)C[C@H](O)C3)CCC[C@]12C [Example 13d, (7E,23E)- and (7E,23Z)-(1R,3R)-26,26,26,27,27,27-hexafluoro-24a,24b-dihomo-19-nor-9,10-seco-cholesta-5,7,23-trien-24a-yne-1,3,25-triol] | 
9 | 1 | CCC(O)(/C=C/C=CC[C@@H](C)[C@H]1CC[C@H]2/C(=C/C=C3C[C@@H](O)C[C@H](O)C3)CCC[C@]12C)CC [Example 13e, (7E,23E24aE)- and (7E,23Z,24aE)-(1R,3R)-24a,24b,26a,26b-tetrahomo-19-nor-9,10-seco-cholesta-5,7,23,24a-tetraen-24a-yne-1,3,25-triol] | 
10 | 10 | C[C@H](CC=C/C=C/C1(O)CCCC1)[C@H]1CC[C@H]2/C(=C/C=C3C[C@@H](O)C[C@H](O)C3)CCC[C@]12C [Example 13f, (7E,23E,24aE)- and (7E,23Z,24aE)-(1R,3R)-25-(1-hydroxy-cyclopentyl)-24a,24b-dihomo-19-nor-9,10-seco-cholesta-5,7,23,24a-tetraen-24a-yne-1,3,25-diol] | 
